Values quoted from earlier work as cited in US20250231185A1, “Coronavirus T Cell Epitopes, Megapools and Uses Thereof” (La Jolla Institute for Immunology, priority 2021, published 2025).

Test system: CD8+ T cells
Settings: cited from earlier work; for Restriction: T cell subset (CD4 or CD8) recognizing the SARS-CoV-2-derived epitope; for Dominant: SARS-CoV-2-derived CD8 epitopes, dominant = recognized by 3 or more donors/different studies

| Substance | Restriction | Dominant |
| --- | --- | --- |
| 500 (MKDLSPRWY) [compound 500] | CD8 | – |
| 501 (LSPRWYFYYL) [compound 501] | CD8 | Yes (more dominant epitopes are defined by being recognized by 3 or more donors/different studies) |
| 502 (SPRWYFYYL) [compound 502] | CD8 | Yes (more dominant epitopes are defined by being recognized by 3 or more donors/different studies) |
| 503 (YLGTGPEAGL) [compound 503] | CD8 | – |
| 504 (GTGPEAGLPY) [compound 504] | CD8 | Yes (more dominant epitopes are defined by being recognized by 3 or more donors/different studies) |
| 505 (AGLPYGANK) [compound 505] | CD8 | – |
| 506 (LPYGANKDGI) [compound 506] | CD8 | – |
| 507 (YGANKDGIIW) [compound 507] | CD8 | – |
| 508 (IIWVATEGA) [compound 508] | CD8 | – |
| 509 (ATEGALNTPK) [compound 509] | CD8 | Yes (more dominant epitopes are defined by being recognized by 3 or more donors/different studies) |
| 510 (ATEGALNTPKDHI) [compound 510] | CD8 | Yes (more dominant epitopes are defined by being recognized by 3 or more donors/different studies) |
| 511 (GTRNPANNA) [compound 511] | CD8 | – |
| 513 (NPANNAAIVL) [compound 513] | CD8 | Yes (more dominant epitopes are defined by being recognized by 3 or more donors/different studies) |
| 514 (VLQLPQGTTL) [compound 514] | CD8 | Yes (more dominant epitopes are defined by being recognized by 3 or more donors/different studies) |
| 515 (AEGSRGGSQA) [compound 515] | CD8 | – |
| 516 (SQASSRSSSR) [compound 516] | CD8 | – |
| 517 (SSRGTSPAR) [compound 517] | CD8 | – |

| Substance | Restriction | Dominant |
| --- | --- | --- |
| 518 (LALLLLDRL) [compound 518] | CD8 | Yes (more dominant epitopes are defined by being recognized by 3 or more donors/different studies) |
| 519 (LLLLDRLNQL) [compound 519] | CD8 | Yes (more dominant epitopes are defined by being recognized by 3 or more donors/different studies) |
| 520 (LLLDRLNQL) [compound 520] | CD8 | Yes (more dominant epitopes are defined by being recognized by 3 or more donors/different studies) |
| 521 (QQQQGQTVTK) [compound 521] | CD8 | Yes (more dominant epitopes are defined by being recognized by 3 or more donors/different studies) |
| 522 (KSAAEASKK) [compound 522] | CD8 | – |
| 523 (KPRQKRTAT) [compound 523] | CD8 | Yes (more dominant epitopes are defined by being recognized by 3 or more donors/different studies) |
| 524 (RTATKAYNV) [compound 524] | CD8 | – |
| 526 (RRGPEQTQGNF) [compound 526] | CD8 | – |
| 528 (QELIRQGTDYKHW) [compound 528] | CD8 | Yes (more dominant epitopes are defined by being recognized by 3 or more donors/different studies) |
| 529 (ELIRQGTDY) [compound 529] | CD8 | – |
| 530 (DYKHWPQIAQF) [compound 530] | CD8 | – |
| 531 (HWPQIAQF) [compound 531] | CD8 | – |
| 533 (AQFAPSASAF) [compound 533] | CD8 | Yes (more dominant epitopes are defined by being recognized by 3 or more donors/different studies) |
| 534 (QFAPSASAFF) [compound 534] | CD8 | – |
| 535 (FAPSASAFF) [compound 535] | CD8 | – |
| 536 (APSASAFFGM) [compound 536] | CD8 | – |
| 537 (SASAFFGMSR) [compound 537] | CD8 | – |
